Values of other authors, collected in patent publication US5962457A, “2,3 Disubstituted- (5,6)-heteroarylfused-pyrimidine-4-ones” (Pfizer Inc., priority 1997, dated 1999).

Assays:
[1] = focal and global ischemia models; Sheardown et al., Buchan et al., LePeillet et al.
[2] = rat global ischemia models; LaPeillet et al.

SMILES | prevention of global and focal ischemic damage [1] | neuroprotection in global ischemia [2]
NS(=O)(=O)c1cccc2c1c([N+](=O)[O-])cc1[nH]c(=O)c(=O)[nH]c12 [NBQX, 2,3-dihydroxy-6-nitro-7-sulfamoylbenzo[f-]quinoxaline] | effective in preventing global and focal ischemic damage | –
CC1=NN=C(c2ccc(N)cc2)c2cc3c(cc2C1)OCO3 [GKYI 52466] | – | effective neuroprotective agent
